Test results taken from US9057727B2, “Screening methods using G-protein coupled receptors and related compositions” (The General Hospital Corporation, priority 2007, dated 2015).
Like-named read-outs stand apart in the source and are kept apart here. Ends that are not written are not given here. Peptide text beside a SMILES is read from it.

What was measured:
MC3T3-E1 cells = assay: cAMP in MC3T3-E1 cells, dose-response; type: cell-based
Experimental: In the 1-30 scaffold, Gly, Ser, Leu, Asn, Gln, Trp, Glu, and Lys were substituted at position 29; Gly, Ser, Leu, Asn, Asp, Trp, and Lys were substituted at position 30; and Ser, Leu, Asn, Val, Trp, Glu, and Lys were substituted at position 31. […] These peptides were tested for cAMP activity in MC3T3-E1 cells.

[1] = target: T1, human PTHR, G protein-coupled conformation (RG) (Homo sapiens, UniProt Q03431); assay: Competition binding to RG conformation of hPTHR (COS-7 membranes, GαsND, 125I-[Aib1,3,M]PTH(1-15) tracer); conditions: for screen human PIR RG (% parent): parent PTHrP(1-28)NH
T1 construct: expressed in transfected cells; host or cells: COS-7, transient (Fugene-6); membranes
T1 sequence (Q03431 27-593): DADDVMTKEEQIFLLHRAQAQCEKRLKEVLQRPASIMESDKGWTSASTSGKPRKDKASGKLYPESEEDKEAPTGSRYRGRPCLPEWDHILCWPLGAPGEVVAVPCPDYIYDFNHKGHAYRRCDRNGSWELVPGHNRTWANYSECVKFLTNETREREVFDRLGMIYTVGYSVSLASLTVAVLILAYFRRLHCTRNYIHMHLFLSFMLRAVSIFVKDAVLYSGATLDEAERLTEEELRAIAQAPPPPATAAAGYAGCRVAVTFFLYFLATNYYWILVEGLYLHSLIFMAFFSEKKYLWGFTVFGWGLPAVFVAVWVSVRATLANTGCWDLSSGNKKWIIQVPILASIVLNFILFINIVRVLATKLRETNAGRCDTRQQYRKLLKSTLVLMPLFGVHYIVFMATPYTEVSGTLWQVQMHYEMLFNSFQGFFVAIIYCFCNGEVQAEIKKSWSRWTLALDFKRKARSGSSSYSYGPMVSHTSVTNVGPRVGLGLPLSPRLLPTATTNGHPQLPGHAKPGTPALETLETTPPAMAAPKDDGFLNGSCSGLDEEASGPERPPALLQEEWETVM

[2] = tested on: LLCPK1-B64 cells or SaOS-2 cells; assay: cAMP screen of substituted PTHrP(1-28) analogs (% parent); type: cell-based; conditions: parent PTHrP(1-28)NH
Method in brief: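 LLCPK1-B64 or SaOS-2 cells exposed to peptide analogs at 3×10^−9M with IBMX for 30 minutes at room temperature, then cAMP measured. Each analog's response expressed as percentage of that for parent PTHrP(1-28).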

SaOS cells = assay: cAMP production in SaOS cells, dose-response; type: cell-based
[3] = target: T2, human PTHR, G protein-uncoupled conformation (R^0) (Homo sapiens, UniProt Q03431); assay: Competition binding to R0 conformation of hPTHR (COS-7 membranes, GTPγS, 125I-PTH(1-34) tracer); conditions: for IC50: read-out: R^0 binding affinity hPTHR IC50; for screen human PIR R0 (% parent): parent PTHrP(1-28)NH
T2 construct: expressed in transfected cells; host or cells: COS-7, transient (Fugene-6)
T2 sequence (Q03431 27-593): T1 sequence (Q03431 27-593)
Method in brief: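 Bound versus free radioligand was separated by vacuum filtration after 90 min incubation of COS-7 hPTHR membranes (20-100 μg/mL) with tracer and competing peptides. Non-specific binding came from a saturating unlabeled analog.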

human PTH receptor = target: T3, human PTH receptor (Homo sapiens, UniProt Q03431); assay: cAMP in HRKRK-B7 cells EC50 (nM)
T3 construct: expressed in transfected cells
Text: Table printed on a drawing sheet, Figure 25
Head of the field: cAMP in HRKRK-B7 cells EC50 (nM)
First copying reader's note: The column head prints the cell line as HRKRK-B7 while the title prints HKRK-B7.

[4] = Calcemic action in normal rats (blood ionized calcium); type: in vivo; conditions: for calcemic action compared with control peptides, in words: normal and TPTX rats
Experimental: Binding to the rat PTHR was also measured in vitro.
Concentration of peptides in stock solution were adjusted by dilution with 25 mmol/L phosphate-citrate buffer/100 mmol/L NaCl/0.05% Tween 80 (pH. 5.0) (PC-buffer). All peptides were allowed to stand on ice immediately before administration.
Female SD-IGS rat at 8 weeks of age (Charles River Japan, Inc.) were measured for their body weight. Blood was collected by tail vein into heparinized capillary tubes and measured for baseline levels of blood ionized calcium and pH using Ca^++/pH analyzer (Model 634/Bayer Medical Ltd.) to give the corrected level of ionized calcium at pH 7.4 for each sample. Rats received intravenous administration of each peptides at a dose of 1 ml/kg. Peptides were administered to groups of 6 rats each respectively. At 1, 2, 4, or 6 hours after administration, blood was collected by tail vein to monitor the time course of corrected blood ionized calcium levels. The time course of changes in corrected ionized calcium levels, compared to vehicle, and are expressed as means+/−standard error.

[5] = target: hPTH1R (RG form of the human PTH receptor); assay: RG memb: hPTH1R+dnGS *M-PTH(1-15)
[6] = Table 2, read-out: MC3T3-E1 cAMP EC50
[7] = Table 3, read-out: dose-response cAMP in MC3T3-E1 (EC50)
[8] = Table 2, read-out: SaOS camp EC50
[9] = Table 3, read-out: dose-response cAMP in SaOS (EC50)

Compound	EC50 (MC3T3-E1 cells; [6])	EC50 (MC3T3-E1 cells; [7])	screen human PIR RG (% parent) [1]	screen cAMP (% parent) [2]	EC50 (SaOS cells; [8])	EC50 (SaOS cells; [9])	IC50 ([3]; Table 2)	screen human PIR R0 (% parent) [3]	EC50 (human PTH receptor)	calcemic action compared with control peptides, in words [4]	other results
CC[C@H](C)[C@H](NC(=O)[C@H](CC(C)C)NC(=O)[C@H](CCCCN)NC(=O)[C@H](Cc1c[nH]cn1)NC(=O)[C@H](CC(C)C)NC(=O)[C@H](Cc1ccccc1)NC(=O)[C@H](C)NC(=O)[C@H](CCCNC(=N)N)NC(=O)[C@H](CCCNC(=N)N)NC(=O)[C@H](CCCNC(=N)N)NC(=O)[C@H](C)NC(=O)[C@H](CC(=O)O)NC(=O)[C@H](CCC(N)=O)NC(=O)[C@@H](NC(=O)[C@H](CO)NC(=O)[C@H](CCCCN)NC(=O)CNC(=O)[C@H](CCCCN)NC(=O)[C@H](CC(=O)O)NC(=O)[C@H](Cc1c[nH]cn1)NC(=O)[C@H](CC(C)C)NC(=O)[C@H](CC(C)C)NC(=O)[C@H](CCC(N)=O)NC(=O)[C@H](Cc1c[nH]cn1)NC(=O)[C@H](CCC(=O)O)NC(=O)[C@H](CO)NC(=O)[C@@H](NC(=O)[C@H](C)N)C(C)C)[C@@H](C)CC)C(N)=O [A18, 22, K26-PTHrP(1-28)NH, A18,22,K26-PTHrP(1-28)] (H-AVSEHQLLHDKGKSIQDARRRAFLHKLI-NH2; N-terminus assumed)	0.091 nM	0.091 nM	193 % parent	405 % parent	0.024 nM	0.024 nM	1810 nM	178 % parent			IC50 ([1]; Table 2, read-out: RG binding affinity hPTHR IC50): 0.1 nM; R0/RG selectivity ([3]; Table 2, hPTHR): 18079
CC[C@H](C)[C@H](NC(=O)[C@H](CC(C)C)NC(=O)[C@H](CCCCN)NC(=O)[C@H](Cc1c[nH]cn1)NC(=O)[C@H](CC(C)C)NC(=O)[C@H](Cc1ccccc1)NC(=O)[C@H](C)NC(=O)[C@H](CCCNC(=N)N)NC(=O)[C@H](CCCNC(=N)N)NC(=O)[C@H](CCCNC(=N)N)NC(=O)[C@H](CCC(=O)O)NC(=O)[C@H](CC(=O)O)NC(=O)[C@H](CCC(N)=O)NC(=O)[C@@H](NC(=O)[C@H](CO)NC(=O)[C@H](CCCCN)NC(=O)CNC(=O)[C@H](CCCCN)NC(=O)[C@H](CC(=O)O)NC(=O)[C@H](Cc1c[nH]cn1)NC(=O)[C@H](CC(C)C)NC(=O)[C@H](CC(C)C)NC(=O)[C@H](CCC(N)=O)NC(=O)[C@H](Cc1c[nH]cn1)NC(=O)[C@H](CCC(=O)O)NC(=O)[C@H](CO)NC(=O)[C@@H](NC(=O)[C@H](C)N)C(C)C)[C@@H](C)CC)C(N)=O [E18, A22, K26-PTHrP(1-28)NH, E18,A22,K26-PTHrP(1-28)] (H-AVSEHQLLHDKGKSIQDERRRAFLHKLI-NH2; N-terminus assumed)	0.251 nM	0.251 nM	145 % parent	301 % parent	0.241 nM	0.241 nM	9240 nM	68.8 % parent			
CC[C@H](C)[C@H](NC(=O)[C@H](CCC(=O)O)NC(=O)[C@H](C)NC(=O)[C@@H](NC(=O)[C@H](Cc1c[nH]cn1)NC(=O)[C@@H](NC(=O)[C@H](CCC(=O)O)NC(=O)[C@H](C)NC(=O)[C@@H](NC(=O)[C@H](CC(C)C)NC(=O)[C@H](Cc1c[nH]cn1)NC(=O)[C@H](Cc1c[nH]cn1)NC(=O)[C@H](CC(C)C)NC(=O)[C@H](Cc1ccccc1)NC(=O)[C@H](Cc1ccccc1)NC(=O)[C@H](CCCNC(=N)N)NC(=O)[C@H](CCCNC(=N)N)NC(=O)[C@H](CCCNC(=N)N)NC(=O)[C@H](CC(C)C)NC(=O)[C@H](CC(=O)O)NC(=O)[C@H](CCC(N)=O)NC(=O)[C@@H](NC(=O)[C@H](Cc1c[nH]cn1)NC(=O)[C@H](CCCCN)NC(=O)CNC(=O)[C@H](CC(C)C)NC(=O)[C@H](CC(N)=O)NC(=O)[C@H](Cc1c[nH]cn1)NC(=O)[C@H](CCSC)NC(=O)[C@H](CC(C)C)NC(=O)[C@H](CCC(N)=O)NC(=O)[C@@H](NC(=O)[C@H](CCC(=O)O)NC(=O)[C@H](CO)NC(=O)[C@@H](NC(=O)[C@@H](N)CO)C(C)C)[C@@H](C)CC)[C@@H](C)CC)[C@@H](C)CC)[C@@H](C)CC)[C@@H](C)O)C(=O)O [PTH(1-14)/PTHrP(15-36), hPTH(1-14)/PTHrP(15-36)] (H-SVSEIQLMHNLGKHIQDLRRRFFLHHLIAEIHTAEI-OH)									1.35 nM	higher calcemic actions than did PTH(1-34)	
CC[C@H](C)[C@H](NC(=O)[C@H](CCC(=O)O)NC(=O)[C@H](C)NC(=O)[C@@H](NC(=O)[C@H](Cc1c[nH]cn1)NC(=O)[C@@H](NC(=O)[C@H](CCC(=O)O)NC(=O)[C@H](C)NC(=O)[C@@H](NC(=O)[C@H](CC(C)C)NC(=O)[C@H](Cc1c[nH]cn1)NC(=O)[C@H](Cc1c[nH]cn1)NC(=O)[C@H](CC(C)C)NC(=O)[C@H](Cc1ccccc1)NC(=O)[C@H](Cc1ccccc1)NC(=O)[C@H](CCCNC(=N)N)NC(=O)[C@H](CCCNC(=N)N)NC(=O)[C@H](CCCNC(=N)N)NC(=O)[C@H](CCSC)NC(=O)[C@H](CO)NC(=O)[C@H](CC(N)=O)NC(=O)[C@H](CC(C)C)NC(=O)[C@H](Cc1c[nH]cn1)NC(=O)[C@H](CCCCN)NC(=O)CNC(=O)[C@H](CC(C)C)NC(=O)[C@H](CC(N)=O)NC(=O)[C@H](Cc1c[nH]cn1)NC(=O)[C@H](CCSC)NC(=O)[C@H](CC(C)C)NC(=O)[C@H](CCC(N)=O)NC(=O)[C@@H](NC(=O)[C@H](CCC(=O)O)NC(=O)[C@H](CO)NC(=O)[C@@H](NC(=O)[C@@H](N)CO)C(C)C)[C@@H](C)CC)[C@@H](C)CC)[C@@H](C)CC)[C@@H](C)O)C(=O)O [PTH(1-18)/PTHrP(19-36), hPTH(1-18)/PTHrP(19-36)] (H-SVSEIQLMHNLGKHLNSMRRRFFLHHLIAEIHTAEI-OH)									1.34 nM	higher calcemic actions than did PTH(1-34)	
CC[C@H](C)[C@H](NC(=O)[C@H](CCC(=O)O)NC(=O)[C@H](C)NC(=O)[C@@H](NC(=O)[C@H](Cc1c[nH]cn1)NC(=O)[C@@H](NC(=O)[C@H](CC(=O)O)NC(=O)[C@H](CCC(N)=O)NC(=O)[C@H](CC(C)C)NC(=O)[C@H](CCCCN)NC(=O)[C@H](CCCCN)NC(=O)[C@H](CCCNC(=N)N)NC(=O)[C@H](CC(C)C)NC(=O)[C@H](Cc1c[nH]c2ccccc12)NC(=O)[C@H](CCC(=O)O)NC(=O)[C@@H](NC(=O)[C@H](CCCNC(=N)N)NC(=O)[C@H](CCC(=O)O)NC(=O)[C@H](CCSC)NC(=O)[C@H](CO)NC(=O)[C@H](CC(N)=O)NC(=O)[C@H](CC(C)C)NC(=O)[C@H](Cc1c[nH]cn1)NC(=O)[C@H](CCCCN)NC(=O)CNC(=O)[C@H](CC(C)C)NC(=O)[C@H](CC(N)=O)NC(=O)[C@H](Cc1c[nH]cn1)NC(=O)[C@H](CCSC)NC(=O)[C@H](CC(C)C)NC(=O)[C@H](CCC(N)=O)NC(=O)[C@@H](NC(=O)[C@H](CCC(=O)O)NC(=O)[C@H](CO)NC(=O)[C@@H](NC(=O)[C@@H](N)CO)C(C)C)[C@@H](C)CC)C(C)C)[C@@H](C)CC)[C@@H](C)O)C(=O)O [PTH(1-30)/PTHrP(31-36)]									0.78 nM		IC50 [5]: 0.17 nM
AVAEIQLMHQRGKSIQDLRRRFFLHHLIAEIHTAEI (AVAEIQLMHQRGKSIQDLRRRFFLHHLIAEIHTAEI-OH) [Mc-PTH(1-11)/PTHrP(15-36)]											calcemic action (blood ionized calcium), in words ([4]; normal rats, i.v.): Prolonged calcemic effects
